Data as given in article PMC2636818, “Atomic structures and functional implications of the archaeal RecQ-like helicase Hjm” (BMC Structural Biology, 2009).

T1: PfuHjm (Pyrococcus furiosus, UniProt O73946)
T1 construct: gene hel308; full-length 720 residues, recombinant from pET21d (pHJM100) in E. coli BL21 codonPlus (DE3)-RIL; C-terminal ~60 (Form 1) or 20 (Form 2) residues disordered; one molecule per asymmetric unit in Form 1
T1 sequence (O73946 1-720): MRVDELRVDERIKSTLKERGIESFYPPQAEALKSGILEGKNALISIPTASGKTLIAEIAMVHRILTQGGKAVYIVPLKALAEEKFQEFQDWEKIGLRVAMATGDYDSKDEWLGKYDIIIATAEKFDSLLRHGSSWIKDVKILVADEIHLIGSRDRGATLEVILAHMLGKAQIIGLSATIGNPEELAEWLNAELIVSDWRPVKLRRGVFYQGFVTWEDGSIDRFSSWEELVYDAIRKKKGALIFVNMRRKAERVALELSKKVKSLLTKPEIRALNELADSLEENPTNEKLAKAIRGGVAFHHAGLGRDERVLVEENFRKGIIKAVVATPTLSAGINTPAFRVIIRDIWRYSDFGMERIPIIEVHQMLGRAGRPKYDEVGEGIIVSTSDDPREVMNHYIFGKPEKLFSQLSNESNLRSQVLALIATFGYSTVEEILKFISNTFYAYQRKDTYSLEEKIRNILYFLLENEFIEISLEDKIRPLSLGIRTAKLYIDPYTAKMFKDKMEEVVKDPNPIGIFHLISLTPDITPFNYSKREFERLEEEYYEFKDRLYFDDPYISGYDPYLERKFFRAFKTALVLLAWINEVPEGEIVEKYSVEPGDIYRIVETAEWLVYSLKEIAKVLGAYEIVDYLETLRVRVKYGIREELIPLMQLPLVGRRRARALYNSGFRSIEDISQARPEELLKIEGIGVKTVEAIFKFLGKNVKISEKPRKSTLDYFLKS

T2: PfuHjm (RecQ-like helicase Hjm, Hel308 family) (Pyrococcus furiosus, UniProt O73946 1-720)
T2 sequence: T1 sequence (O73946 1-720)


Assays:
PfuHjm = target: T1, PfuHjm; test: X-ray crystal structure, soaked crystal; assay type: binding; details: Form 1 crystal soaked with 1 mM ATPgammaS, ADP modelled as hydrolysed product; 100 mM citrate pH 5.0, 1.6 M ammonium sulfate; 2.4 A; nucleotide site
[1] = target: T2, PfuHjm (RecQ-like helicase Hjm, Hel308 …); test: negative-stain single-particle EM (23 A) of complex purified by gel filtration; no nucleotide added; 50 mM Tris-HCl pH 8.0, 0.15 M NaCl, 0.5 mM EDTA, 1 mM DTT, 10% glycerol, room temperature, 20 min, 1:1 protein/DNA; details: protein: recombinant; hairpin with 3' overhang

Molecule | X-ray crystal structure, soaked crystal (PfuHjm) | binding result [1]
Nc1ncnc2c1ncn2[C@@H]1O[C@H](COP(=O)(O)OP(=O)(O)O)[C@@H](O)[C@H]1O [ADP] | electron density corresponding to the hydrolyzed product ADP, rather than the soaked ATPγS | –
AGCACTGCTATTCCCTAGCAGTGCTAGATGCACGAC (structured_DNA) [3' overhang hairpin DNA] | – | binds
